Where two headings read alike, the source gives them in different places.
Tests used:
[1] = system: LS513 colon cancer cell with KRAS G12D mutation; test: Proliferation inhibition on RAS cell lines measured by CTG, LS513; type: cell-based; details: LS513 cells, incubated for 6 days, CellTiter Glo
From the text: NCI-H358 is a human non-small cell lung cancer cell line with KRAS G12C mutation; AGS is a gastric cancer cell line with KRAS G12D mutation; SW620 is a colon cancer cell with KRAS G12V mutation; NCI-H460 is a non-small cell lung cancer cell with KRAS Q61H mutation; MKN1 is a wild-type gastric cancer cell with KRAS-amplified; LS513 is a colon cancer cell with KRAS G12D mutation; LoVo is a colon cancer cell with KRAS G13D mutation; NCI-H441 is a lung cancer cell with KRAS G12V mutation, and Capan-2 is a pancreatic cancer cell with KRAS G12V mutation.
(§1) The proliferation inhibitory effect of the compounds on various mutations was evaluated by determining the proliferation inhibitory activity of the compounds on these cell lines.
(§2) The assay was conducted on either 384-well plates or 96-well plates. The procedures are as follows:
(§3) The cell suspensions were added to 384- or 96-well plates (384-well plate: 50 μL; 96-well plate: 100 μL) except for peripheral wells. The plates were placed in a carbon dioxide incubator overnight. NCI-H358, AGS, NCI-H460, MKN-1, LS513, LoVo, and NCI-H441 were placed in a 5%, 370 carbon dioxide incubator overnight, and SW620 was placed in a 0%, 370 carbon dioxide incubator overnight. The HPD300 micro-dosing instrument was used to add the corresponding concentration of compound to each well (9-10 concentration gradients of compound were obtained by 3-fold dilution). Cell plates were incubated in a carbon dioxide incubator for 5-6 days. NCI-H358, AGS, NCI-H460 and MKN-1 were incubated at 5%, 37° incubator and SW620 was incubated at 0%, 370 incubator. On the day of plate measurement, the 384- or 96-well plates were first equilibrated at room temperature for 10-30 min, then CellTiter Glo reagent (384-well plate: 25 μL; 96-well plate: 100 μL) was added to the 384- or 96-well plate, shaken for 10 min away from light, and incubated for 10 min. The plates were placed into Victor NIVO or ENVIDION reader plates, and XLFit was utilized to plot the pharmacodynamic inhibition curve and calculate the IC50 value. “IC50>10 μM” is denoted by “*”, “10 μM≥IC50≥1 μM” is denoted by “**”, and “1 μM≥IC50>100 nM” is denoted by “***”, “IC50<100 nM” is denoted by “****”

GP2D cells = test: Proliferation inhibition on RAS cell lines measured by CTG, GP2D; type: cell-based; details: CellTiter Glo
Procedure: as §1, §2, §3

[2] = Homo sapiens, LS-513, 144 h, Table 2, read-out: IC50 (LS513^f)
[3] = 144 h, Table 2, incubated for 6 days, read-out: IC50 (GP2D^j)
[4] = Homo sapiens, LS-513, 144 h, Table 3, read-out: IC50 (LS513^k)
[5] = 144 h, Table 3, incubated for 6 days, read-out: IC50 (GP2D^l)
[6] = Homo sapiens, LS-513, 144 h, Table 1, read-out: IC50 (LS513^f)

Structure (SMILES) | IC50 [1, 2] | IC50 (GP2D cells; [5]) | other results
Nc1cc(Cl)c(C(F)(F)F)c(-c2ncc3c(N4CCCCCN4)nc(OC[C@@]45CCCN4C[C@H](F)C5)nc3c2F)c1 [Compound 81] | < 0.1 µM | – | IC50 (GP2D cells; [3]): 0.1 to 1 µM
C#Cc1c(F)ccc2cc(O)cc(-c3ncc4c(N5CCCCCN5)nc(OCC5(C)CN(C)CCC5CF)nc4c3F)c12 (stereo not shown) [Compound 150] | – | < 0.1 µM | IC50 [1, 4]: < 0.1 µM
C#Cc1c(F)ccc2cc(OC(=O)N3CCCC3)cc(-c3ncc4c(N5CCCCCN5)nc(OC[C@@]56CCCN5C[C@H](F)C6)nc4c3F)c12 [Compound 111] | – | < 0.1 µM | –
C#Cc1c(F)ccc2cc(O)cc(-c3ncc4c(N5CCCCCN5)nc(OC[C@@H]5CCCN5C)nc4c3F)c12 [Compound 72] | < 0.1 µM | – | IC50 (GP2D cells; [3]): < 0.1 µM
C#Cc1c(F)ccc2cc(O)cc(-c3ncc4c(N5CCCCCN5)nc(OCC5CN(c6nccn6C)C5)nc4c3F)c12 [Compound 138] | – | 0.1 to 1 µM | –
C#Cc1c(F)ccc2cc(OC(=O)N3CCCCC3)cc(-c3ncc4c(N5CCCCCN5)nc(OC[C@@]56CCCN5C[C@H](F)C6)nc4c3F)c12 [Compound 99] | – | < 0.1 µM | IC50 [1, 4]: < 0.1 µM
C#Cc1c(F)ccc2cc(OC(=O)c3cc(F)c(F)c(F)c3)cc(-c3ncc4c(N5CCCCCN5)nc(OC[C@@]56CCCN5C[C@H](F)C6)nc4c3F)c12 [Compound 126] | – | – | IC50 ([1]; Table 3, read-out: IC50 (LS513^k)): < 0.1 µM; IC50 (GP2D cells; Table 3, incubated for 6 days, read-out: IC50 (GP2D^l)): < 0.1 µM
C#Cc1c(F)ccc2cc(OC(=O)NCCOCCOC)cc(-c3ncc4c(N5CCCCCN5)nc(OC[C@@]56CCCN5C[C@H](F)C6)nc4c3F)c12 [Compound 92] | – | < 0.1 µM | IC50 [1, 4]: < 0.1 µM
CCc1c(F)ccc2cc(O)cc(-c3ncc4c(N5CCCCCN5)nc(OCC5(CN6CCOCC6)CC5)nc4c3F)c12 [Compound 46] | < 0.1 µM | – | –
C#Cc1c(F)ccc2cc(OC(=O)N3CCOCC3)cc(-c3ncc4c(N5CCCCCN5)nc(OC[C@@]56CCCN5C[C@H](F)C6)nc4c3F)c12 [Compound 90] | – | < 0.1 µM | IC50 [1, 4]: < 0.1 µM
C#Cc1c(F)ccc2cc(O)cc(-c3ncc4c(N5CCCCCN5)nc(OCC5(CN(C)C)CC5)nc4c3F)c12 [Compound 13] | – | – | IC50 ([1]; Table 1, read-out: IC50 (LS513^f)): < 0.1 µM
N#Cc1c(N)sc2c(F)ccc(-c3c(Cl)cc4c(N5CCCCCN5)nc(OC[C@@]56CCCN5C[C@H](F)C6)nc4c3F)c12 [Compound 42] | 0.1 to 1 µM | – | –
C#Cc1c(F)ccc2cc(O)cc(-c3ncc4c(N5CC=CCN5)nc(OC[C@@]56CCCN5C[C@H](F)C6)nc4c3F)c12 [Compound 76] | – | – | IC50 (GP2D cells; [3]): 0.1 to 1 µM
C#Cc1c(F)ccc2cc(O)cc(-c3ncc4c(N5CCCCCN5)nc(OCC5(CN6CCCCC6)CC5)nc4c3F)c12 [Compound 47] | < 0.1 µM | – | –
C#Cc1c(F)ccc2cc(OC(=O)N(C)C)cc(-c3ncc4c(N5CCCCCN5)nc(OC[C@@]56CCCN5C[C@H](F)C6)nc4c3F)c12 [Compound 89] | – | 0.1 to 1 µM | –
C#Cc1c(F)ccc2cc(O)cc(-c3ncc4c(N5CCCCCN5)nc(OCC56CCCN5C/C(=C/F)C6)nc4c3F)c12 (stereo not shown) [Compound 21] | – | – | IC50 [1, 6]: < 0.1 µM
C#Cc1c(F)ccc2cc(O)cc(-c3ncc4c(N5CCCCCN5C(=O)OC(C)(C)C)nc(OC[C@@]56CCCN5C[C@H](F)C6)nc4c3F)c12 [Compound 12] | – | – | IC50 [1, 6]: < 0.1 µM
C#Cc1c(F)ccc2cc(O)cc(-c3ncc4c(N5CCCC(F)(F)CN5)nc(OC[C@@]56CCCN5C[C@H](F)C6)nc4c3F)c12 [Compound 56] | < 0.1 µM | – | –
C#Cc1c(F)ccc2cc(O)cc(-c3ncc4c(N5CCCCCN5)nc(OCC5(C)C(C)CCN5CC=C)nc4c3F)c12 (stereo not shown) [Compound 148] | – | < 0.1 µM | –
C#Cc1c(F)ccc2cc(O)cc(-c3ncc4c(N5CCCCCN5)nc(OCC56CCCN5CC(=C(F)F)C6)nc4c3F)c12 (stereo not shown) [Compound 22] | – | – | IC50 [1, 6]: < 0.1 µM
C=Cc1cc2c(N3CCCCCN3)nc(OC[C@@]34CCCN3C[C@H](F)C4)nc2c(F)c1-c1ccc(F)c2sc(N)c(C#N)c12 [Compound 43] | < 0.1 µM | – | –

— patent US20240425512A1, “NITROGEN-CONTAINING HETEROCYCLIC COMPOUND, PHARMACEUTICAL COMPOSITION THEREOF AND APPLICATION THEREOF” (280 Bio, Inc., priority 2023, published 2024)
